Legend:
[1] = tested on: common lambsquarters (CHEAL); assay: Test 1 field trial, preemergence; assay type: in vivo, Chenopodium album; conditions: g a.i./ha: Atrazine 1680, S-Metolachlor 1870
Description: (§1) Corn seeds (hybrid ‘Pioneer 34N43’) were planted in mid spring season, 3.8 cm deep in a silt loam soil having 4.6% organic matter and a pH of 6. Plots were 10.7 m long by 1.5 m wide with rows spaced 76 cm apart. Seeds were spaced 18 cm apart within the rows. The field was managed using conventional tillage practices. […] Results are summarized in Table 1 and are the means of the three replicates. […] Colby's Equation (Colby, S. R. “Calculating Synergistic and Antagonistic Responses of Herbicide Combinations,” Weeds, 15(1), pp 20-22 (1967)) calculates the expected additive effect of herbicidal mixtures, and for two active ingredients is of the form:
(§2) Pa+b=Pa+Pb−(PaPb/100) • wherein Pa+b is the percentage effect of the mixture expected from additive contribution of the individual components, • Pa is the observed percentage effect of the first active ingredient at the same use rate as in the mixture, and • Pb is the observed percentage effect of the second active ingredient at the same use rate as in the mixture.

yellow foxtail (SETLU) [2] = assay: Test 1 field trial, preemergence; assay type: in vivo, Setaria glauca; conditions: 56 DAA; g a.i./ha: Atrazine 1680; S-Metolachlor 1870
Description: as §1, §2

corn (ZEAMD) [3] = assay: Test 5 field trial, postemergence; assay type: in vivo, Zea mays ssp. indentata; conditions: atrazine 1120, glufosinate 470 or glyphosate 1120 g a.i./ha alone
Description: (§3) Corn seeds (hybrid ‘Pioneer 38H69’) were planted in mid spring season, 5.1 cm deep in a silty clay loam soil having 3% organic matter and a pH of 6.5. Plots were 9.1 m long by 3.0 m wide with rows spaced 76 cm apart. The field was managed using conventional tillage practices. […] All treatments included a surfactant except glufosinate treatments, both alone and in combination. […] Results are summarized in Table 5 and are the means of the three replicates.

shepherd's purse (CAPBP) = assay: Test 5 field trial, postemergence; assay type: in vivo, Capsella bursa-pastoris; conditions: atrazine 1120, glufosinate 470 or glyphosate 1120 g a.i./ha alone
Description: as §3

giant foxtail (SETFA) [4] = assay: Test 5 field trial, postemergence; assay type: in vivo, Setaria faberi; conditions: atrazine 1120, glufosinate 470 or glyphosate 1120 g a.i./ha alone
Description: as §3

yellow foxtail (SETLU) [5] = assay: Test 5 field trial, postemergence; assay type: in vivo, Setaria glauca; conditions: atrazine 1120, glufosinate 470 or glyphosate 1120 g a.i./ha alone
Description: as §3

velvetleaf (ABUTH) [6] = assay: Test 6 field trial, postemergence; assay type: in vivo, Abutilon theophrasti; conditions: 1120 g a.i./ha
Description: (§4) Corn seeds (hybrid ‘Pioneer 35Y62’) were planted in mid spring season, 3.8 cm deep in a silt loam soil having 4% organic matter and a pH of 5.8. Plots were 10.7 m long by 1.5 m wide with rows spaced 76 cm apart. Seeds were spaced 18 cm apart within the rows. The field was managed using conventional tillage practices. […] All treatments included a surfactant except glufosinate treatments, both alone and in combination. […] Results are summarized in Table 6 and are the means of the three replicates.

redroot pigweed (AMARE) [7] = assay: Test 6 field trial, postemergence; assay type: in vivo, Amaranthus retroflexus; conditions: 1120 g a.i./ha
Description: as §4

giant foxtail (SETFA) [8] = assay: Test 6 field trial, postemergence; assay type: in vivo, Setaria faberi; conditions: 1120 g a.i./ha
Description: as §4

corn (ZEAMD) [9] = assay: Test 8 field trial, preemergence; assay type: in vivo, Zea mays ssp. indentata; conditions: g a.i./ha: Cpd 2 100, Atrazine 1680, S-Metolachlor 1870
Description: (§5) Corn seeds (hybrid ‘Pioneer 31G96’) were planted in mid spring season, 3.8 cm deep in a clay loam soil having 2% organic matter and a pH of 6.6. Plots were 6.1 m long by 3.0 m wide with rows spaced 76 cm apart. Seeds were spaced 15 cm apart within the rows. The field was managed using conventional tillage practices. […] A few of the weed species could not be evaluated at every timing. […] Results are the means of the three replicates.

velvetleaf (ABUTH) [10] = assay: Test 8 field trial, preemergence; assay type: in vivo, Abutilon theophrasti; conditions: g a.i./ha: Cpd 2 100, Atrazine 1680, S-Metolachlor 1870
Description: as §5

redroot pigweed (AMARE) [11] = assay: Test 8 field trial, preemergence; assay type: in vivo, Amaranthus retroflexus; conditions: 56 DAA; g a.i./ha: Cpd 2 100, Atrazine 1680, S-Metolachlor 1870
Description: as §5

corn (ZEAMD) [12] = assay: Test 10 field trial, preemergence; assay type: in vivo, Zea mays ssp. indentata; conditions: 28 DAA; g a.i./ha: Cpd 2 100, Atrazine 1680, S-Metolachlor 1870
Description: (§6) Corn seeds (hybrid ‘Pioneer 33P65 RR’) were planted in mid spring season, 2.5 cm deep in a silt loam soil. Plots were 9.1 m long by 3.0 m wide with rows spaced 76 cm apart. The field was managed using conventional tillage practices. […] Results are the means of the three replicates.

velvetleaf (ABUTH) [13] = assay: Test 10 field trial, preemergence; assay type: in vivo, Abutilon theophrasti; conditions: 28 DAA; g a.i./ha: Cpd 2 100, Atrazine 1680, S-Metolachlor 1870
Description: as §6

common waterhemp (AMATA) = assay: Test 10 field trial, preemergence; assay type: in vivo, Amaranthus tamariscinus; conditions: 28 DAA; g a.i./ha: Cpd 2 100, Atrazine 1680, S-Metolachlor 1870
Description: as §6

goosegrass (ELEIN) = assay: Test 11 field trial, preemergence; assay type: in vivo, Eleusine indica
Description: Corn seeds (hybrid ‘Pioneer 3041’) were planted in mid spring season, 5 cm deep in a clay soil having 2.6% organic matter and a pH of 5.6. Plots were 8 m long by 1.5 m wide with rows spaced 80 cm apart. Seeds were spaced 15 cm apart within the rows. The field was managed using conventional tillage practices. […] Treatments consisted of Compound 2 or
Goosegrass was not evaluated 16 or 91 days after application.

CCNc1nc(Cl)nc(NC(C)C)n1 [Atrazine, atrazine, reference compound]
CHEAL Obs ([1]; 28 DAA): 100 | CHEAL Obs ([1]; 56 DAA): 100 | SETLU Obs (yellow foxtail (SETLU) [2]): 0 | ZEAMD Obs (corn (ZEAMD) [3]; 16 DAA): 0% | ZEAMD Obs (corn (ZEAMD) [3]; 31 DAA): 0% | CAPBP Obs (shepherd's purse (CAPBP); 16 DAA): 95% | CAPBP Obs (shepherd's purse (CAPBP); 31 DAA): 100% | SETFA Obs (giant foxtail (SETFA) [4]; 16 DAA): 0% | SETFA Obs (giant foxtail (SETFA) [4]; 31 DAA): 0% | SETLU Obs (yellow foxtail (SETLU) [5]; 16 DAA): 0% | SETLU Obs (yellow foxtail (SETLU) [5]; 31 DAA): 0% | ABUTH Obs (velvetleaf (ABUTH) [6]; 14 DAA): 0% | ABUTH Obs (velvetleaf (ABUTH) [6]; 28 DAA): 0% | AMARE Obs (redroot pigweed (AMARE) [7]; 14 DAA): 100% | AMARE Obs (redroot pigweed (AMARE) [7]; 28 DAA): 100% | SETFA Obs (giant foxtail (SETFA) [8]; 14 DAA): 0% | SETFA Obs (giant foxtail (SETFA) [8]; 28 DAA): 0% | ZEAMD Obs (corn (ZEAMD) [9]; 19 DAA): 5% | ZEAMD Obs (corn (ZEAMD) [9]; 29 DAA): 2% | ZEAMD Obs (corn (ZEAMD) [9]; 56 DAA): 3% | ABUTH Obs (velvetleaf (ABUTH) [10]; 19 DAA): 87% | ABUTH Obs (velvetleaf (ABUTH) [10]; 29 DAA): 99% | ABUTH Obs (velvetleaf (ABUTH) [10]; 56 DAA): 98% | AMARE Obs (redroot pigweed (AMARE) [11]): 100% | ZEAMD Obs (corn (ZEAMD) [12]): 0% | ABUTH Obs (velvetleaf (ABUTH) [13]): 55% | AMATA Obs (common waterhemp (AMATA)): 83% | ELEIN Obs (goosegrass (ELEIN); 30 DAA, atrazine 1500 or metolachlor 2500 g a.i./ha alone): 95 | ELEIN Obs (goosegrass (ELEIN); 44 DAA, atrazine 1500 or metolachlor 2500 g a.i./ha alone): 100 | ELEIN Obs (goosegrass (ELEIN); 62 DAA, 1500 g a.i./ha, scale 0 to 100): 100

— patent publication US20100285959A1, “HERBICIDAL MIXTURES” (priority 2006, published 2010)
